Experimental data from patent US8404694B2, “Aurora kinase modulators and method of use” (Amgen Inc., priority 2008, dated 2013).

Assays:
AuroraA-TPX2 = target: T1, AuroraA-TPX2 (Homo sapiens, UniProt O14965); assay: AuroraA-TPX2 Homogeneous Time Resolved Fluorescent (HTRF) kinase assay; assay type: biochemical; conditions: ATP about 1 μM, biotinylated PLK peptide, read-out: AurA_IC50—IP (Avg)
T1 construct: 20 μL of AuroraA-TPX2 KD GST; GST
T1 sequence (O14965 133-383 limits assumed): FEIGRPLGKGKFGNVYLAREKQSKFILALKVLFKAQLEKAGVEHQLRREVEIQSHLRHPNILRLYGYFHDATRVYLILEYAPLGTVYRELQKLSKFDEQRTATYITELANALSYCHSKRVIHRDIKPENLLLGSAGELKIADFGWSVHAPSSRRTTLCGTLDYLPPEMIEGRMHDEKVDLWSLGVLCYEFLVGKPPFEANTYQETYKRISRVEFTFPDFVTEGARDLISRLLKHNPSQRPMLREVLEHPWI
T1 sequence (Q9ULW0 1-747 partner): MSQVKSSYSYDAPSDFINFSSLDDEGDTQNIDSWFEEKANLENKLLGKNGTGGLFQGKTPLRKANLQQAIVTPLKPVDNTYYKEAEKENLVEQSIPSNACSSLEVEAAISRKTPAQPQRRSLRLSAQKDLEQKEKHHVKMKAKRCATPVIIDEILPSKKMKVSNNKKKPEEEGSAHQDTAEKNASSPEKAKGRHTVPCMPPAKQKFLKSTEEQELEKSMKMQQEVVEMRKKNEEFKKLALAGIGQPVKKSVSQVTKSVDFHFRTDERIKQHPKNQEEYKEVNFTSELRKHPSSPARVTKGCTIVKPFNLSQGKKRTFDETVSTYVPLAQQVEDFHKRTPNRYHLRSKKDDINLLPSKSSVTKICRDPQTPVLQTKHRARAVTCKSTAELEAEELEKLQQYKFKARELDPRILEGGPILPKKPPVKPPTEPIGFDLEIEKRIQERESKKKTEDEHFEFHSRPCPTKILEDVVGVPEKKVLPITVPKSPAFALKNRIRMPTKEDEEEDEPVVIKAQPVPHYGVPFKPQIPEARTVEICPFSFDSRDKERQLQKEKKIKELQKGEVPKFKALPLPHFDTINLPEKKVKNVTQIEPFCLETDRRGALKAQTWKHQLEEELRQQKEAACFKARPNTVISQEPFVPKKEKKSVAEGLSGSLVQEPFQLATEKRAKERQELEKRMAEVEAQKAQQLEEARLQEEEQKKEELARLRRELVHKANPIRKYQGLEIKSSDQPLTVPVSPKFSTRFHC
Procedure: AuroraA-TPX2-Homogeneous Time Resolved Fluorescent (HTRF) Kinase Assay:
The Aurora-A HTRF assay begins with Aurora-A in the presence of ATP phosphorylating the biotinylated peptide PLK. The reaction incubates for about 120 min. Detection reagents are added to quench the reaction. These agents stop the reaction by diluting out the enzyme and chelating the metals due to the presence of EDTA. After addition, the assay is incubated overnight to allow the detection reagents to equilibrate.
The AuroraA HTRF assay comprises 1 μL of compound in 100% DMSO, 20 μL of ATP and biotinylated PLK, and 20 μL of AuroraA-TPX2 KD GST for a final volume of about 41 μL. The final concentration of PLK is about 1 μM. The final concentration of ATP is about 1 μM (Km(app)=1 μM+/−0.1) and the final concentration of AuroraA is about 5 nM. Buffer conditions are as follows: 60 mM HEPES pH 7.5, 25 mM NaCl, 10 mM MgCl, 2 mM DTT, 0.05% BSA.
(§1) The assay is quenched and stopped with 160 μL of detection reagent. Detection reagents are as follows: Buffer made of 50 mM Tris, pH 7.5, 100 mM NaCl, 3 mM EDTA, 0.05% BSA, 0.1% Tween20. Added to this buffer prior to reading is Steptavidin allophycocyanin (SA-APC) at a final conc in the assay of 0.0005 mg/mL, and europilated anti-phosphoPLK Ab (Eu-anti-PLK) at a final conc of 0.02 nM.
(§2) The assay plate is read in either a Discovery or a RubyStar. The eu-anti-PLK is excited at 320 nm and emits at 615 nm to excite the SA-APC which in turn emits at 655 nm. The ratio of SA-APC at 655 nm (excited due to close proximity to the Eu-anti-PLK because of phosphorylation of the peptide) to free Eu-anti-PLK at 615 nm will give substrate phosphorylation.
(§3) Many of the Examples described herein were tested, and found to be active compounds. Table I includes related biological data, which may be interpreted using the activity gauge below: […]

AuroraB = target: T2, AuroraB (Homo sapiens, UniProt Q96GD4); assay: AuroraB Homogeneous Time Resolved Fluorescent (HTRF) kinase assay; assay type: biochemical; conditions: ATP 23 μM, biotinylated Histone H3 peptide, read-out: AurB_IC50—IP (Avg)
T2 construct: 20 μL of AuroraB FL His; His
T2 sequence (Q96GD4 whole entry): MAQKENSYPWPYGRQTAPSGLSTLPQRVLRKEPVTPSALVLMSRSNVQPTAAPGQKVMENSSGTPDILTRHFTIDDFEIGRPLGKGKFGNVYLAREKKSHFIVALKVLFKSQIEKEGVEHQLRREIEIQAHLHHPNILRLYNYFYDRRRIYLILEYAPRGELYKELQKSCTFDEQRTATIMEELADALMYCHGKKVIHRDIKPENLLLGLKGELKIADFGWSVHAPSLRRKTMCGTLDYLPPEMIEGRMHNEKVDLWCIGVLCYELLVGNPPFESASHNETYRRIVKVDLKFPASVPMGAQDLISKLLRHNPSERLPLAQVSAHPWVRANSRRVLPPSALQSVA
Procedure: AuroraB-Homogeneous Time Resolved Fluorescent (HTRF) Kinase Assay:
The AuroraB HTRF assay begins with AuroraB in the presence of ATP phosphorylating the biotinylated peptide Histone H3. The reaction incubates for about 90 min. the reaction is quenched by addition of detection reagents, which stop the reaction by diluting out the enzyme and chelating the metals due to the presence of EDTA. After addition, the assay is incubated for about 60 min to allow detection reagents to equilibrate.
The AuroraB HTRF assay comprises 1 μL of compound in 100% DMSO, 20 μL of ATP and biotinylated Histone H3, and 20 μL of AuroraB FL His for a final volume of 41 μL. The final concentration of Histone H3 is 0.1 μM. The final concentration of ATP is 23 μM (Km(app)=23 μM+/−2.6) and the final concentration of AuroraB is 400 pM. Buffer conditions are as follows: 50 mM HEPES pH 7.5, 5 mM NaCl, 0.5 mM MgCl, 0.5 mM MnCl, 2 mM DTT, 0.05% BSA.
as §1, with “0.001” for “0.0005”, “anti-phosphoHistoneH3” for “anti-phosphoPLK”, “(Eu-anti-His H3)” for “(Eu-anti-PLK)”, “0.064” for “0.02”
as §2, with “eu-anti-His H3” for “eu-anti-PLK”, “Eu-anti-His H3” for “Eu-anti-PLK”
as §3

HeLa cells = assay: HeLa cell 24 hr ploidy assay; assay type: cell-based; conditions: Homo sapiens, 24 hrs treatment, DNA content (ploidy), read-out: 24 h_4N Ploidy EC50—IP (Avg)
Procedure: HeLa Cell 24 hr Ploidy Assay Protocol
The purpose of this assay is to evaluate the ability of selected individual compounds to induce Deoxyribonucleic acid (DNA) content (ploidy) in cells thought failed cell division. Cell cycle analysis is a rapid and efficient way to evaluate the status of DNA content (ploidy) of a given cell. HeLa cells (1×10^4 HeLa cells/well) in 100 ul of media (MEM+10% FBS) were plated in 96-well plates (Packard View) and cultured for 24 hrs at 37° C. maintained in a 5% CO2 atmosphere. The following day, cells were treated for 24 hrs with inhibitor compounds (10 pt. Dose ranging from 0.0024-1.25 umol/L). The compounds were serially diluted in DMSO (0.25% final concentration). The cells were fixed (3.7% Formaldehyde and 1% glutaraldehyde) and permeabilized (1×PBS with 1% BSA and 0.2% Triton X-100) in preparation for nuclear staining. The well plates were stained for 45 minutes at RT in the dark using Hoechest 33342 nuclear stain at 0.5 ug·ml (Stock of 10 mg/ml, Invitrogen, CA, Cat # H3570). The nuclear stain was removed by aspiration and the cells were washed with wash buffer. A Cellomics Array Scan Vti plate reader was used to acquire the DNA ploidy data of the cells using Cell Cycle bioapplication. Numbers for each of “valid cell count/well”, “% of 4N cells” and “% of >4Ncells” were calculated with the assistance of an Activity Base 5.1ca software and dose curves were generated using an XLFit software. With XLFit, final EC50 IP and EC50 transit values, as well as the Max and Min, were calculated for each curve. Many of the Examples described herein were tested, and fund to be active compounds. Table I includes related biological data in the 24 h cell-ploidy content assay, which may be interpreted using the activity gauge below: […]

Structure (SMILES)	IC50 (AuroraA-TPX2) [nM]	IC50 (AuroraB) [nM]	EC50 (HeLa cells) [nM]
Clc1ccc(-c2nnc(Nc3ccc(Oc4ncnn5cccc45)cc3)c3ccccc23)cc1 [Example 3, 4-(4-Chlorophenyl)-N-(4-(pyrrolo[2,1-f][1,2,4]triazin-4-yloxy)phenyl)-1-phthalazinamine]	500 to 2500	< 100	500 to 2500
COCCOc1cc2nccc(Sc3ccc(Nc4nnc(-c5ccccc5)c5ccccc45)cc3)n2n1 [Example 27, N-(4-((2-((2-(methyloxy)ethyl)oxy)pyrazolo[1,5-a]pyrimidin-7-yl)thio)phenyl)-4-phenyl-1-phthalazinamine]	100 to 500	< 100	< 100
Oc1cc2nccc(Sc3ccc(Nc4nnc(-c5ccc(Cl)cc5)c5ccccc45)cc3)n2n1 [Example 5, 7-(4-(4-(4-Chlorophenyl)phthalazin-1-ylamino)phenylthio)pyrazolo[1,5-a]pyrimidin-2-ol]	< 100	< 100	100 to 500
c1ccc(-c2nnc(Nc3ccc(Sc4ccnc5cc(C6CC6)nn45)cc3)c3ccccc23)cc1 [Example 22, N-(4-((2-cyclopropylpyrazolo[1,5-a]pyrimidin-7-yl)thio)phenyl)-4-phenyl-1-phthalazinamine]	100 to 500	< 100	< 100
